Assay results published in a melting point compilation (Tetko et al.; mined from patent text by program, amines drawn as free bases though some values may be those of a salt).

| Compound | melting point [°C] |
| --- | --- |
| Fc1cccc2c(NCCc3ccc(Oc4ccc(C(F)(F)F)cn4)cc3)ncnc12 | 152 |
| CC(C)(C)OC(=O)Cc1c(Cl)nc(N)nc1C#N | 107 to 109 |
| O=C(Nc1ccc(C=CCN2C(=O)c3ccccc3C2=O)cc1)c1ccccc1-c1ccc(C(F)(F)F)cc1 | 190 |
| CC(=O)NC(CSC(c1ccccc1)(c1ccccc1)c1ccccc1)C(=O)NCCSC(=O)C(C)C (configuration not stated) | 147 to 148 |
| N[C@@H](Cc1cccc(OC(F)(F)C(F)F)c1)[C@H](O)c1ccc(Oc2ccccc2)cc1 (racemic) | 85 to 86 |
| COc1cc(C)c(C(=O)CCCCCCCCCCO)c(O)c1OC | 81 |
| COc1ccccc1C(=O)c1[nH]c2cc(Cl)ccc2c1CC(=O)O | 214 to 217 |
| CCOC(=O)C1=C(C)NC(C)=C(C(=O)OCC)C1c1ccccc1/C=C/C(=O)OC(CC(C)C)CC(C)C | 49 to 52 |
| C=CCc1c(O)ccc2ccc(=O)n(CC=C(C)C)c12 | 138 to 142 |
| CCCCCCCCCCCCNC(=O)c1cc(-c2cc(Cl)cc(Cl)c2)c(OCC(=O)O)c(-c2cc(Cl)cc(Cl)c2)c1 | 139 to 144 |
| Cn1cc(Cl)c(=O)c(-c2cccc(C(F)(F)F)c2)c1 | 170 to 172 |
| Cc1sc(-c2ccccc2)nc1COc1ccc(Cn2cc(CCC(=O)O)c(-c3ccccc3)c2)cc1 | 157 to 158 |
| Cc1c(CO)ncnc1N(C)C | 46 to 48 |
| C=CCNC(=Nc1ccc(-c2c[nH]cn2)cc1)S(=O)(=O)O | 183 to 184 |
| COc1cccc(CSc2nnc(-c3ccc4c(c3)CCO4)o2)c1 | 91 to 93 |
| CCc1cnc2c(c1)C=Cc1cccnc1N2 | 95 to 97 |
| CC1(C)C(=O)N(CC#CI)C(=O)N1Cc1ccccc1 | 109 to 112 |
| Cc1ccc(-c2nc(Cl)nc(Cl)c2-c2ccc(Cl)cc2)cc1 | 223 to 225 |
| N#CCCCCN1C(=NCCCn2ccnc2)c2cccc3cccc1c23 | 76 to 78.5 |

| Compound | melting point [°C] |
| --- | --- |
| CCC(C)(C)c1ccc(OCCCC(=O)Nc2ccc(Cl)c(NC(=O)C(C(=O)c3ccc(OC)cc3)N3C(=O)NC(=C(C)C)C3=O)c2)c(C(C)(C)CC)c1 (configuration not stated) | 140 to 141 |
| Brc1cccc(Sc2ncccc2OCCCc2cccnc2)c1 | 75 to 76 |
| CCOC(=O)/C=C/c1c(-c2ccccc2)c2c3ccccc3ccn2c1C(C)C | 145 to 146 |
| O=C(c1ccco1)N1CCN[C@@H]2CCCC[C@@H]21 | 47 to 50 |
| O=C(NO)NCCCCC1CCSS1 (configuration not stated) | 100 to 101 |
| Nc1cc(N=c2sc(=S)n3n2CCCC3)c(F)cc1Cl | 59 to 61 |
| Fc1c(OCc2ccccc2)ccc(-c2ncc(Br)cn2)c1F | 138 |
| Cc1c(Cc2cccc(C(F)(F)F)c2)oc2c(-c3cccc(C(=O)NCCC#N)c3)cccc12 | 158 to 159 |
| N#Cc1ccc(C#CCCC(=O)O)cc1 | 149 to 152 |
| CC(C)Oc1cc(F)c2c(c1)Oc1cc(F)ccc1S2(=O)=O | 148 to 151 |
| COc1ccc2[nH]c(-c3cccc(F)c3)cc(=O)c2c1OP(=O)(O)O | 179 to 181 |
| CC(C)(CN)c1ccc2nc(-c3ccncc3)[nH]c2c1 | 199 to 202 |
| CCCCCCCCCCCCCCCCCC(=O)OC1CC(C)(C)N(OCC(C)(C)O)C(C)(C)C1 | 51 to 56 |
| COC(=O)CCc1cc2c(s1)NC(=O)C(C)N=C2c1ccccc1Cl (configuration not stated) | 196 to 197 |
| CCCc1c(C(=O)N2CCOCC2)c2ccc(C(N)=O)cc2n1Cc1ccccc1Cl | 229 to 230 |
| O=C(O)CCc1cc(C(=O)c2cccc(C(=O)O)c2)ccc1O | 197 to 200 |
| Cc1cccc2ncc(NC(=O)Nc3ccc(F)cc3F)c(-c3ccccc3Cl)c12 | 218 to 220 |
| Cc1cccc(NC(=O)c2ccccc2SSc2ccccc2C(=O)Nc2cccc(C)c2)c1 | 193 to 195 |
| NNC1(Cl)C=Cc2nc(Cl)cnc2C1 (configuration not stated) | < 250 |

| Compound | melting point [°C] |
| --- | --- |
| CC(C)(C)Oc1nc2cc(F)c([N+](=O)[O-])cc2nc1Cl | 141 to 143 |
| Cc1[nH]c2ncnc(Nc3cccc(Cl)c3)c2c1C | 239 to 240 |
| CC(C)C(NC(=O)OC(C)(C)C)C(=O)OC(O)C(=O)C1C(C)CC2C3CC(F)C4=CC(=O)C=CC4(C)C3C(O)CC21C (configuration not stated) | 166 to 168 |
| CNC(=O)C(Cc1ccc(OC)cc1)NC(=O)C(CC(C)C)C(CC(=O)N1CCN(C)CC1)SC(C)=O (configuration not stated) | 133 to 138 |
| COc1cc(CCCC2OC(=O)NC2=O)ccc1OCc1csc(/C=C/c2ccccc2)n1 (configuration not stated) | 202 to 203 |
| COC(=O)Cc1ccc(CNC(=O)C2Cc3ccccc3N2S(=O)(=O)c2ccc(-c3cccc(C(F)(F)F)c3)cc2)c(F)c1 (configuration not stated) | 50 to 57 |
| Nc1nc2c(s1)CCN(CC=Cc1cccc(OCc3ccccc3)c1)CC2 | 78 to 80 |
| C[C@H](CSC(=O)c1ccccc1)C(=O)N1C(=O)N(Cc2ccccc2)C[C@H]1C(=O)OC(C)(C)C | 104 to 106 |
| CCn1ncc(C(=O)c2ccc(S(C)(=O)=O)c(-c3ccccc3C)c2C)c1O | 179 to 180 |
| N#Cc1ccc2c(c1)OCC21C(=O)N(Cc2ccccn2)c2ccccc21 (configuration not stated) | 151 to 153 |
| O=[N+]([O-])c1ccc(OC2(c3ccccc3)CCN(Cc3ccccc3)CC2)cc1 | 135 to 137 |
| CC(C)(C)OC(=O)[C@@](C)(C#N)[C@H](c1ccccc1C(F)(F)F)c1cccc2ccccc12 (racemic) | 159 to 161 |
| O=c1nc(-c2cccc(CN3CCC(O)(c4ccc(Cl)cc4)CC3)n2)sc2ccccc12 | 151 to 153 |
| Cc1c(-c2ncncc2Br)ssc1=S | 122 |
| N#CCc1cccc(CCc2ccccc2C(=O)O)c1 | 113 to 120 |
| CCC1CN2C(C)=Nc3c(C)nn(C)c3C2=N1 (configuration not stated) | 121 to 123 |
| CCCCCCCCCCCCCCCCCC(=O)OC1CC(C)(C)N(OC2CCCCC2)C(C)(C)C1 | 44 to 47 |
| O=C1C(=Cc2ccco2)CCc2cc(OCCc3c[nH]cn3)ccc21 | 57 to 60 |

Second part, the compound after the results:

| melting point [°C] | Compound |
| --- | --- |
| 128 to 130 | CCC(CC)=NOC(=O)c1cc(-n2c(=O)cc(C(F)(F)F)n(C)c2=O)c(F)cc1Cl |
| 82 | CN1C(=O)CCC2c3ccc(Cl)cc3CCC21 (configuration not stated) |
| 73 to 74 | COc1ccc(C=O)c(Br)c1 |
| 290 to 292 | O=c1[nH]c2c(o1)-c1ccncc1CC2 |
| 210 | Cc1ccc2c(c1)c1c(n2Cc2ccc(F)cc2)CCCC1=O |
| 250 | CCN(CC)C(=O)Nc1ccc(S(=O)(=O)n2c(=O)n(C3CCCCC3)c3cc(Cl)ccc32)c(OC)c1 |
| 170 to 172 | NC(=O)N1CCC(Oc2c(F)c(F)c(F)c(F)c2F)CC1 |
| 195 to 197 | CCN1C(=O)CC(C(=O)O)C1c1c(Cl)cccc1Cl (configuration not stated) |
| 93 to 94 | COC(=O)c1cccc2c(SC(F)(F)F)c(OC)ccc12 |
| 94 to 96 | COc1nc(C)c(C)nc1N(C)C(=O)N1CCN(c2cc(C)cc(C)c2)CC1 |
| 160 to 161 | CSc1cc(C)nc(SC)c1NC(=O)CN1CCN(CCCSc2nc3ccccc3o2)CC1 |
| 92 | COC(=O)c1ccc2c(c1)C(=O)C(CC=O)C2 (racemic) |
| 94 to 95 | CC1C(c2ccc([N+](=O)[O-])cc2)CC(=O)N1C (configuration not stated) |
| 256 to 259 | CC(C)(C(=O)O)n1c(=O)[nH]c2ccc(Cl)cc2c1=O |
| 83.5 to 84.5 | CCc1cccc(CC)c1NC(=O)c1c(C)oc(C)cc1=O |
| 245 to 247 | O=C1Nc2ccccc2N(C(=O)C2CC2)c2cscc21 |
| 78 to 84 | COc1ccccc1N1CCN(CCCn2c(=O)[nH]c3ccsc3c2=O)CC1 |
| 123 to 124 | CS(=O)(=O)Nc1ccc(CCN2CCCCC2)cc1 |
| 105 to 107 | Cn1c(-c2cccs2)nnc1S(C)=O (configuration not stated) |
| 196 to 197 | CCCc1nn(C)c2c(=O)[nH]c(-c3cc(C(=O)N4CCN(C)CC4)ccc3OCC)nc12 |
| 274 | O=c1[nH]c(=O)n(CCO)c2ccccc12 |
| 103 to 106 | CC1(C)CC(=O)C(C(=O)NS(=O)(=O)c2ccc(Cl)cc2)C(=O)C1 |
| 139 to 140 | O=C1NC(=O)C(c2ccc(Br)s2)O1 (configuration not stated) |

| melting point [°C] | Compound |
| --- | --- |
| 239 to 241 | COC(=O)c1cccc2c(=O)c3c(I)cccc3[nH]c12 |
| 148 to 149 | Cc1sc(-c2cccc(Br)c2)nc1O |
| 147 | CC(C)c1ccc2nc[nH]c(=O)c2c1 |
| 170 to 173 | NC(=O)c1ccc(CCN2CCN(Cc3ccccc3Cl)CC2)cc1 |
| 140 to 141 | O=C(O)c1ccsc1COc1ccc(CCCCO)cc1 |
| 192 to 193 | COC(=O)c1ncn2c1[C@@H]1CCCN1C(=O)c1sccc1-2 |
| 150 to 151 | COc1ccc(-n2ccn([C@H](C)[C@@]3(c4ccc(F)cc4F)CO3)c2=O)cc1 |
| 98 to 100 | CCOC(=O)Cc1ccc2c(c1)C(=O)c1ccccc1CN2 |
| 146 to 148 | COC(C)CCC1(O)C2=NCCCN2c2cc(Cl)ccc21 (configuration not stated) |
| 108 to 110 | O=C(Nc1cc(-c2cccc(-c3ccccc3)c2)[nH]n1)C1Cc2ccccc2C1 |
| 202 to 204 | COc1ccccc1NC(=O)N1CCc2cc(S(=O)(=O)N3CC(c4ccccc4)NC3=O)ccc21 (configuration not stated) |
| 55 to 57 | CC1CN(c2ccncc2Oc2ccccc2)CCN1 (configuration not stated) |
| 290 | CC(=O)Nc1ccc(S(=O)(=O)NC23CC4CC(CC(C4)C2)C3)cc1 |
| 191 to 193 | COC(=O)c1cc2ccc(C(=O)NCCc3ccccn3)cc2[nH]1 |
| 252 to 254 | O=C(O)c1cccc(Cn2ccn(C3CCc4ccccc4C3)c2=S)c1 (configuration not stated) |
| > 280 | Cc1c(Br)cc(-c2ccc(=O)[nH]n2)c(O)c1Br |
| 153 to 155 | CCOC(=O)c1cncnc1Nc1ccccc1NC |
| 200 | Cc1ccnc(N2CCN(CCc3c(C)n4c5c(cc(Br)cc35)CCC4)CC2)c1 |
| 32 to 34 | COc1cc(Cl)ncn1 |
| 191 to 192 | Cc1cc(C(=O)N(C2CCCCC2)C2CCCC2)ccc1Cn1cnc2ncccc21 |
| 134 | O=C1N(CO)OCCN1c1ccc(Cl)c(Cl)c1 |
| 132 to 134 | O=C(Nc1cn(C2CCCCO2)nc1C(=O)NCC(O)Cc1ccccc1)c1ccccn1 (configuration not stated) |
| 35 | CC(=O)[C@H]1CC=C(C)C(=O)C1 |
